Our source for the IC50 values is ChEMBL document CHEMBL1681728, “An automated, polymer-assisted strategy for the preparation of urea and thiourea derivatives of 15-membered azalides as potential antimalarial chemotherapeutics” (Bioorg Med Chem, 2011).

What all share (type): functional, organism-based
In assay [1] the test system is Plasmodium falciparum. As to the kind of experiment: Antimalarial activity against multidrug-resistant Plasmodium falciparum TM91C235 assessed as inhibition of [3H]hypoxanthine incorporation after 96 hrs by microtiter plate scintillation counting.
The subject of assay [2] is Plasmodium falciparum. The assay can be described thus: Antimalarial activity against chloroquine-,pyrimethamine-resistant Plasmodium falciparum W2 assessed as inhibition of [3H]hypoxanthine incorporation after 96 hrs by microtiter plate scintillation counting.
The subject of assay [3] is Plasmodium falciparum. As to the kind of experiment: Antimalarial activity against chloroquine-sensitive Plasmodium falciparum D6 assessed as inhibition of [3H]hypoxanthine incorporation after 96 hrs by microtiter plate scintillation counting.

What is called IC50 is the concentration that inhibits the measured activity by half. Turning to `CC[C@H]1OC(=O)[C@H](C)[C@@H](O[C@H]2C[C@@](C)(OC)[C@@H](O)[C@H](C)O2)[C@H](C)[C@@H](O[C@@H]2O[C@H](C)C[C@H](N(C)C)[C@H]2O)[C@](C)(O)C[C@@H](C)CN(CCCNC(=O)Nc2ccc3c(c2)OCCCO3)[C@H](C)[C@@H](O)[C@]1(C)O`, the results for the IC50 in the assay on Plasmodium falciparum [1], in the assay on Plasmodium falciparum [2] and in the assay with Plasmodium falciparum [3] were 60 nM, 40.8 nM and 28.1 nM, respectively.

As to `CC[C@H]1OC(=O)[C@H](C)[C@@H](O[C@H]2C[C@@](C)(OC)[C@@H](O)[C@H](C)O2)[C@H](C)[C@@H](O[C@@H]2O[C@H](C)C[C@H](N(C)C)[C@H]2O)[C@](C)(O)C[C@@H](C)CN(CCCNC(=O)Nc2cccc(C(F)(F)F)c2)[C@H](C)[C@@H](O)[C@]1(C)O`, the IC50 in the assay on Plasmodium falciparum [1] was 72.8 nM; in the assay on Plasmodium falciparum [2], 135 nM; in the assay with Plasmodium falciparum [3], 257 nM.

`CC[C@H]1OC(=O)[C@H](C)[C@@H](O[C@H]2C[C@@](C)(OC)[C@@H](O)[C@H](C)O2)[C@H](C)[C@@H](O[C@@H]2O[C@H](C)C[C@H](N(C)C)[C@H]2O)[C@](C)(O)C[C@@H](C)CN(CCCNC(=S)Nc2cccc(F)c2)[C@H](C)[C@@H](O)[C@]1(C)O`: the IC50 in the assay on Plasmodium falciparum [1] is 116 nM; in the assay with Plasmodium falciparum [2], 200 nM; in the assay with Plasmodium falciparum [3] it was 511 nM.

Take `CCc1ccc(NC(=O)NCCCN2C[C@H](C)C[C@@](C)(O)[C@H](O[C@@H]3O[C@H](C)C[C@H](N(C)C)[C@H]3O)[C@@H](C)[C@H](O[C@H]3C[C@@](C)(OC)[C@@H](O)[C@H](C)O3)[C@@H](C)C(=O)O[C@H](CC)[C@@](C)(O)[C@H](O)[C@H]2C)cc1`: the IC50 turned out to be 99.3 nM in the assay with Plasmodium falciparum [1], 73.8 nM with Plasmodium falciparum [2] and 226 nM with Plasmodium falciparum [3].

Take `CC[C@H]1OC(=O)[C@H](C)[C@@H](O[C@H]2C[C@@](C)(OC)[C@@H](O)[C@H](C)O2)[C@H](C)[C@@H](O[C@@H]2O[C@H](C)C[C@H](N(C)C)[C@H]2O)[C@](C)(O)C[C@@H](C)CN(CCCNC(=S)Nc2ccc(OCc3ccccc3)cc2)[C@H](C)[C@@H](O)[C@]1(C)O`: the IC50 is 160 nM in the assay with Plasmodium falciparum [1], 88.9 nM with Plasmodium falciparum [2] and 249 nM with Plasmodium falciparum [3].

Regarding `C=CCNC(=S)NCCCN1C[C@H](C)C[C@@](C)(O)[C@H](O[C@@H]2O[C@H](C)C[C@H](N(C)C)[C@H]2O)[C@@H](C)[C@H](O[C@H]2C[C@@](C)(OC)[C@@H](O)[C@H](C)O2)[C@@H](C)C(=O)O[C@H](CC)[C@@](C)(O)[C@H](O)[C@H]1C`, the values for the IC50 in the assay with Plasmodium falciparum [1], with Plasmodium falciparum [2] and with Plasmodium falciparum [3] were 514 nM, 276 nM and 1140 nM, respectively.

Turning to `CC[C@H]1OC(=O)[C@H](C)[C@@H](O[C@H]2C[C@@](C)(OC)[C@@H](O)[C@H](C)O2)[C@H](C)[C@@H](O[C@@H]2O[C@H](C)C[C@H](N(C)C)[C@H]2O)[C@](C)(O)C[C@@H](C)CN(CCCNC(=O)Nc2cc(F)cc3c2OCOC3)[C@H](C)[C@@H](O)[C@]1(C)O`, the figures for the IC50 with Plasmodium falciparum [1], in the assay on Plasmodium falciparum [2] and in the assay on Plasmodium falciparum [3] were 220 nM, 306 nM and 284 nM, respectively.

For `CCCCNC(=O)NCCCN1C[C@H](C)C[C@@](C)(O)[C@H](O[C@@H]2O[C@H](C)C[C@H](N(C)C)[C@H]2O)[C@@H](C)[C@H](O[C@H]2C[C@@](C)(OC)[C@@H](O)[C@H](C)O2)[C@@H](C)C(=O)O[C@H](CC)[C@@](C)(O)[C@H](O)[C@H]1C`, the IC50 is 820 nM in the assay with Plasmodium falciparum [1], 370 nM in the assay on Plasmodium falciparum [2] and 5800 nM in the assay on Plasmodium falciparum [3].

`CC[C@H]1OC(=O)[C@H](C)[C@@H](O[C@H]2C[C@@](C)(OC)[C@@H](O)[C@H](C)O2)[C@H](C)[C@@H](O[C@@H]2O[C@H](C)C[C@H](N(C)C)[C@H]2O)[C@](C)(O)C[C@@H](C)CN(CCCNC(=S)Nc2c(F)cccc2F)[C@H](C)[C@@H](O)[C@]1(C)O`: the IC50 in the assay with Plasmodium falciparum [1] was 188 nM; in the assay with Plasmodium falciparum [2], 86.3 nM; in the assay on Plasmodium falciparum [3] it was 509 nM.

As to `CCCCNC(=S)NCCCN1C[C@H](C)C[C@@](C)(O)[C@H](O[C@@H]2O[C@H](C)C[C@H](N(C)C)[C@H]2O)[C@@H](C)[C@H](O[C@H]2C[C@@](C)(OC)[C@@H](O)[C@H](C)O2)[C@@H](C)C(=O)O[C@H](CC)[C@@](C)(O)[C@H](O)[C@H]1C`, the IC50 with Plasmodium falciparum [1] was determined as 382 nM; in the assay with Plasmodium falciparum [2] it was 188 nM; in the assay on Plasmodium falciparum [3], 655 nM.

As for `CC[C@H]1OC(=O)[C@H](C)[C@@H](O[C@H]2C[C@@](C)(OC)[C@@H](O)[C@H](C)O2)[C@H](C)[C@@H](O[C@@H]2O[C@H](C)C[C@H](N(C)C)[C@H]2O)[C@](C)(O)C[C@@H](C)CN(CCCNC(=O)Nc2ccc(C(C)C)cc2)[C@H](C)[C@@H](O)[C@]1(C)O`, the IC50 with Plasmodium falciparum [1] is 78.3 nM; with Plasmodium falciparum [2], 70.9 nM; with Plasmodium falciparum [3], 225 nM.

`CC[C@H]1OC(=O)[C@H](C)[C@@H](O[C@H]2C[C@@](C)(OC)[C@@H](O)[C@H](C)O2)[C@H](C)[C@@H](O[C@@H]2O[C@H](C)C[C@H](N(C)C)[C@H]2O)[C@](C)(O)C[C@@H](C)CN(CCCNC(=S)Nc2sc3c(c2C(=O)OC)CCCC3)[C@H](C)[C@@H](O)[C@]1(C)O`: the results for the IC50 with Plasmodium falciparum [1], with Plasmodium falciparum [2] and in the assay on Plasmodium falciparum [3] were 407 nM, 229 nM and 825 nM, respectively.

Turning to `CC[C@H]1OC(=O)[C@H](C)[C@@H](O[C@H]2C[C@@](C)(OC)[C@@H](O)[C@H](C)O2)[C@H](C)[C@@H](O[C@@H]2O[C@H](C)C[C@H](N(C)C)[C@H]2O)[C@](C)(O)C[C@@H](C)CN(CCCNC(=O)Nc2ccc(C#N)cc2)[C@H](C)[C@@H](O)[C@]1(C)O`, the IC50 in the assay with Plasmodium falciparum [1] amounted to 206 nM; in the assay with Plasmodium falciparum [2], 98.3 nM; in the assay on Plasmodium falciparum [3], 386 nM.

As for `CC[C@H]1OC(=O)[C@H](C)[C@@H](O[C@H]2C[C@@](C)(OC)[C@@H](O)[C@H](C)O2)[C@H](C)[C@@H](O[C@@H]2O[C@H](C)C[C@H](N(C)C)[C@H]2O)[C@](C)(O)C[C@@H](C)CN(CCCNC(=S)NC2CC2)[C@H](C)[C@@H](O)[C@]1(C)O`, the IC50 was 972 nM in the assay with Plasmodium falciparum [1], 679 nM in the assay on Plasmodium falciparum [2] and 3720 nM with Plasmodium falciparum [3].

As for `CC[C@H]1OC(=O)[C@H](C)[C@@H](O[C@H]2C[C@@](C)(OC)[C@@H](O)[C@H](C)O2)[C@H](C)[C@@H](O[C@@H]2O[C@H](C)C[C@H](N(C)C)[C@H]2O)[C@](C)(O)C[C@@H](C)CN(CCCNC(=S)NC(c2ccccc2)c2ccccc2)[C@H](C)[C@@H](O)[C@]1(C)O`, the IC50 with Plasmodium falciparum [1] was 55 nM; with Plasmodium falciparum [2], 37.7 nM; in the assay on Plasmodium falciparum [3], 218 nM.

`CC[C@H]1OC(=O)[C@H](C)[C@@H](O[C@H]2C[C@@](C)(OC)[C@@H](O)[C@H](C)O2)[C@H](C)[C@@H](O[C@@H]2O[C@H](C)C[C@H](N(C)C)[C@H]2O)[C@](C)(O)C[C@@H](C)CN(CCCNC(=S)Nc2ccc(N3CCOCC3)nc2)[C@H](C)[C@@H](O)[C@]1(C)O`: the IC50 in the assay with Plasmodium falciparum [1] was found to be 1570 nM; with Plasmodium falciparum [2] it was 1960 nM; in the assay with Plasmodium falciparum [3], 2840 nM.

Consider `CC[C@H]1OC(=O)[C@H](C)[C@@H](O[C@H]2C[C@@](C)(OC)[C@@H](O)[C@H](C)O2)[C@H](C)[C@@H](O[C@@H]2O[C@H](C)C[C@H](N(C)C)[C@H]2O)[C@](C)(O)C[C@@H](C)CN(CCCNC(=S)Nc2ccc(Cl)c(Cl)c2)[C@H](C)[C@@H](O)[C@]1(C)O`, for which the IC50 in the assay on Plasmodium falciparum [1] came out at 84.2 nM; in the assay on Plasmodium falciparum [2], 229 nM; with Plasmodium falciparum [3], 296 nM.
